Among the data in patent US9408847B2, “Combination therapy” (Novartis AG, priority 2012, dated 2016) are T/T0 values, retold here.

This assay concerns MCF7 tumor xenograft. Briefly: MCF7 tumor xenograft model in vivo. Particulars: female nude mice. As for the experimental part:
MCF-7 cells were purchased from American Type Culture Collection (ATCC). They were tested free of mycoplasma and viral contamination in the IMPACT VIII PCR assay panel (RADIL, MU Research Animal Diagnostic Laboratory, Columbia, Mo.). They were cultured in EMEM medium (ATCC#30-2003) containing 10% heat inactivated fetal bovine serum, and were at passage 18 for this experiment. Female, nude mice from Harlan (Hsd:Athymic Nude-Foxn1nu) were used in this xenograft study. Mice received 17b-estradiol pellets (0.18 mg/pellet, 90-day release) (Innovative research of America Catalog # NE-121) implanted between the shoulder blades three days before cell implantation. Tumor volume and body weight were monitored throughout the experiment.

With `CN(C)C(=O)c1cc2cnc(Nc3ccc(N4CCNCC4)cn3)nc2n1C1CCCC1` [Compound A], the T/T0 (monotherapy at 75 mg/kg) was −9%.
Take `COC1CC2CC[C@@H](C)[C@@](O)(O2)C(=O)C(=O)N2CCCC[C@H]2C(=O)OC(C(C)C[C@@H]2CCC(OCCO)[C@H](OC)C2)CC(=O)C(C)/C=C(\C)[C@@H](O)C(OC)C(=O)[C@H](C)CC(C)/C=C/C=C/C=C/1C` (stereo in doubt) [Compound B, (1R,9S,12S,15R,16E,18R,19R,21R,23S,24E,26E,28E,30S,32S,35R)-1,18-dihydroxy-12-{(1R)-2-[(1S,3R,4R)-4-(2-hydroxyethoxy)-3-methoxycyclohexyl]-1-methylethyl}-19,30-dimethoxy-15,17,21,23,29,35-hexamethyl-11,36-dioxa-4-aza-tricyclo[30.3.1.04,9]hexatriaconta-16,24,26,28-tetraene-2,3,10,14,20-pentaone]: under “monotherapy at 5 mg/kg”, the T/T0 was −21%.
